Data set [1] can be described thus: Metabolic stability in human liver S9 fraction. It is filed as in vitro ADME. To be noted: pH 7.4, 1 μM compound, 37 °C. The protocol:
Human liver S9 fraction (Sigma-Aldrich, St. Louis, MO, USA) was used. All incubations were performed in duplicate in a thermoblock (Dlab dry bath HB 120-S) at 37 °C. The incubation mixtures contained 1 μM compound with 0.1% DMSO used as a vehicle, human liver S9 fraction (0.3 mg of protein per mL), 5 mM taurine, 5 mM glycine, 5 mM glucose 6-phosphate, 5 mM GSH, 1 mM NADPH, 1 mM ATP, 0.4 mM CoA, 0.4 mM UDPGA, 0.1 mM PAPS, and 0.4 U·mL^−1 glucose 6-phosphate dehydrogenase. All the cofactors were dissolved in a 50 mM potassium phosphate buffer (pH 7.4), containing 5 mM MgCl2, for a final volume of 0.25 mL. Aliquots of 25 µL were removed at 0, 5, 15, 30, 45, 60, and 90 min after S9 addition, and the reaction was stopped by adding 100 μL of ice-cold MeOH. The samples were centrifuged for 10 min at 10,000 rpm, and the supernatants were transferred into vials for LC-MS/MS analysis. The slope of the linear regression of the curve obtained by reporting the natural logarithm of compound area versus incubation time (−k) was used in the conversion to in vitro t1/2 values, calculated as t1/2 = −ln(2)/k. In vitro intrinsic clearance (Clint expressed as μL/min/mg) was obtained by first calculating V using the formula: V = volume of reaction (μL)/protein of liver microsomes (mg); intrinsic clearance was then calculated as: Clint = (V × ln2)/t1/2.

For data set [2], the target named is T1, PXR (Homo sapiens, UniProt O75469).
T1 construct: expressed in transfected cells; host or cells: HepG2
T1 sequence (O75469 1-434): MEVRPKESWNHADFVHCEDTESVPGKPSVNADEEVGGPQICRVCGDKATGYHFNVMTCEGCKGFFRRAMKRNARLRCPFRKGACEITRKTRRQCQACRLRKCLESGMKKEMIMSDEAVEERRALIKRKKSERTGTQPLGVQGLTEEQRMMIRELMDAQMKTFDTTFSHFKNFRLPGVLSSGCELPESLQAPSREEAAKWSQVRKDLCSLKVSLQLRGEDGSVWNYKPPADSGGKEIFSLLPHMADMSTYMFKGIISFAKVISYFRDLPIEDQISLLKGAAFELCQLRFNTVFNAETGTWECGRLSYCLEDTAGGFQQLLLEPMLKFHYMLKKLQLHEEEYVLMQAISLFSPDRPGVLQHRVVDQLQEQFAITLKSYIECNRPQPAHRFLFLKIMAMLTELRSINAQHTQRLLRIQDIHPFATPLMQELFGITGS
T1 sequence (P19793 1-462 partner): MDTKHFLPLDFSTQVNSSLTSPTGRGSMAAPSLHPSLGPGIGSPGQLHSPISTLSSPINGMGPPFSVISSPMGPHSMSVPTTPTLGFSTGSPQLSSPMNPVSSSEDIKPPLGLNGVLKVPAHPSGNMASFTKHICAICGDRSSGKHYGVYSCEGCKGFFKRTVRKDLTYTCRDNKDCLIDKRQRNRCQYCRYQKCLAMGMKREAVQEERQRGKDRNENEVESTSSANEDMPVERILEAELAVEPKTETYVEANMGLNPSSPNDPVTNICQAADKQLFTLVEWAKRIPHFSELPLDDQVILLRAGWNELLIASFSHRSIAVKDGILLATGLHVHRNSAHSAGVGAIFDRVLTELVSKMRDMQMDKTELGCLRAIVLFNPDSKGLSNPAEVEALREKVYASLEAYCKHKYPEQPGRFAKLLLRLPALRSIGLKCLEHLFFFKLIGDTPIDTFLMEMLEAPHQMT
Nature of the data set: PXR luciferase reporter transactivation assay (agonism) on HepG2 cells. It is filed as cell-based. The note with it: compound 10 μM, maximal transactivation compared to Rifaximin 10 μM, mean ± SD, at least three experiments. On the procedure: The antagonistic activity on FXR was investigated using HepG2 cells transfected with 100 ng of pSG5-FXR and pSG5-RXR, 200 ng of the reporter vector p(hsp27)-TK-LUC containing the FXR response element, and 100 ng of the pGL4.70 vector encoding the human Renilla gene used as a transfection control. Cells were stimulated with the agonist 6-ECDCA (10 µM) alone or in combination with compounds 2–11 after 24 h. In another experimental setting, HepG2 cells were transfected using 100 ng of pSG5-PXR, 100 ng of pSG5-RXR, and 100 ng of pGL4.70, along with the reporter vector pGL3(henance)PXRE. At 24 h post-transfection, cells were stimulated with rifaximin 10 μM (as a positive control) or compounds 2–11 (10 μM). The specificity of compounds 5 and 11 versus FXR and PXR was tested using HepG2 cells transiently transfected with 200 ng of the reporter vector p(UAS)5XTKLuc, 100 ng of a vector containing the ligand binding domain of LXRα or LXRβand 100 ng of pGL4.70, a vector encoding the human Renilla gene. At 24 h post-transfection, cells were stimulated for 18 h with GW3965 (5 μM), compounds 5 and 11 (10 μM), and the combination of GW3965 plus 5 or 11 (50 μM). Cellular lysate was assayed for luciferase and Renilla activities after 18 h using the Dual-Luciferase Reporter assay system (E1980, Promega, Madison, WI, USA). The activity of luciferase was measured using the Glomax 20/20 luminometer (Promega, Madison, WI, USA) and normalized with Renilla activities.
Background: In a reporter assay the amount or activity of a reporter protein is the signal.

Data set [3] deals with T1, PXR. Described as above. Format: cell-based. The note with it: concentration-response, mean ± SEM, at least three experiments.

The text below walks through data of article PMC10057480, “Expanding the Library of 1,2,4-Oxadiazole Derivatives: Discovery of New Farnesoid X Receptor (FXR) Antagonists/Pregnane X Receptor (PXR) Agonists” (Molecules, 2023).

“And” between values parts separate entries of the source, which are not always exact repeats. Equal values may be shown once.

`CCCCCN1CCC(c2nc(-c3ccc4ccccc4c3)no2)CC1` [Compound 5, 3-(Naphthalen-2-yl)-5-(1-pentylpiperidin-4-yl)-1,2,4-oxadiazole]: in data set [1], the half-life – broadly, the time in which the quantity being followed falls by half – at 1 µM was found to be 1.15 h and the microsomal CLint (in general, a measure of how fast metabolising enzymes remove a compound, apart from limits set by blood flow) at 1 µM was determined as 33.7 µL/min/mg. The “PXR Agonism Eff (%)” value in data set [2] is 71% and 71 ± 4%. In data set [3], the EC50 (usually the concentration needed to bring the measured effect to its halfway point) is 6.4 ± 0.1 µM.

`OCc1ccc(CN2CCC(c3nc(-c4ccc5ccccc5c4)no3)CC2)cc1` [Compound 11, 5-[1-(4-(Hydroxymethyl)benzyl)piperidin-4-yl]-3-(naphthalen-2-yl)-1,2,4-oxadiazole]: in data set [1], the half-life at 1 µM was found to be 3.4 h and the microsomal CLint at 1 µM amounted to 11.3 µL/min/mg. In addition, the “PXR Agonism Eff (%)” value in data set [2] is 105% and 105 ± 15%. For the same molecule, the midpoint of the response in data set [3], the EC50, lay at 7.5 ± 1 µM.
